Data: ChEMBL document CHEMBL1122235, “4'-Methylangelicins: new potential agents for the photochemotherapy of psoriasis” (J Med Chem, 1983)
Converted amounts (≈) assume the structure as drawn.

Experiments:
[1] = Partition coefficient between octanol and water; assay type: physicochemical
[2] = In vivo inhibition of epidermal DNA synthesis in mouse after topical application relative to that of 8-MOP; assay type: functional
[3] = Frequency of binding sites i.e., number of ligands bound per nucleotide
[4] = system: Mus musculus; test: In vivo inhibition of epidermal DNA synthesis in mouse after oral administration; assay type: functional
[5] = Solubility in water was determined; assay type: physicochemical
[6] = Number of nucleotides occluded by a bound furocoumarin molecule
[7] = system: Nucleic Acid; test: Association constant to an isolated site calf thymus DNA; assay type: nucleic-acid assay; settings: Bos taurus
[8] = system: Mus musculus; test: In vivo inhibition of epidermal DNA synthesis in mouse after topical application; assay type: functional
[9] = Rate constant of the photoreaction between compound and DNA.; assay type: ADME
[10] = In vivo inhibition of epidermal DNA synthesis in mouse after oral administration relativ to that of 8-MOP; assay type: functional

SMILES | Partition coefficient [1] | Relative activity [2] | 1/n [3] | Inhibition [4] | Solubility ([5]; buffer) | Number [6] | Binding constant [7] | Inhibition [8] | Rate constant [9] | Relative activity [10] | Solubility ([5]; water, read-out: Solubility)
O=c1ccc2ccc3occc3c2o1 [ANGELICIN] | 120 | 0.28 | 0.063 | 28% | 0.000105 M l-1 | 15.9 | 560 | 17.5% | 0.011 min⁻¹ | 0.71 | –
Cc1cc(=O)oc2c1ccc1occc12 | – | – | – | – | – | – | – | – | 0.016 min⁻¹ | – | –
Cc1cc2occc2c2oc(=O)ccc12 | – | – | – | – | – | – | – | – | 0.034 min⁻¹ | – | –
Cc1cc2c(ccc3ccc(=O)oc32)o1 | – | – | – | – | – | – | – | – | 0.021 min⁻¹ | – | –
COc1c2occc2cc2ccc(=O)oc12 [METHOXSALEN] | – | 1 | 0.128 | 39.1% | – | 7.81 | 736 | 61% | 0.031 min⁻¹ | 1 | –
Cc1coc2ccc3ccc(=O)oc3c12 | 240 | 0.95 | 0.065 | 36.75% | 0.00007 M l-1 | 15.4 | 975 | 58.43% | 0.037 min⁻¹ | 0.94 | 14 µg/mL (≈ 69.9 µM)
Cc1cc(=O)oc2c1ccc1occ(C)c12 | 1190 | 0.72 | 0.08 | 25.82% | 0.000012 M l-1 | 12.5 | 6600 | 44.27% | 0.073 min⁻¹ | 0.66 | 2.6 µg/mL (≈ 12.1 µM)
Cc1cc2occ(C)c2c2oc(=O)ccc12 | 1041 | 0.95 | 0.08 | 53.33% | 0.000022 M l-1 | 12.5 | 5400 | 58.41% | 0.059 min⁻¹ | 1.36 | 4.7 µg/mL (≈ 21.9 µM)
